Results published in patent publication US8580965B2, “Substituted sulfonamide compounds” (Gruenenthal GmbH, priority 2006, dated 2013).
Counter-ions that a name gives are not always drawn.

What was measured:
[1] = molecular target: T1, human B1R receptor (bradykinin 1 receptor) (Homo sapiens, UniProt P46663); assay: FLIPR Ca2+ assay (Fluo-4) on CHO K1 cells stably transfected with the human B1R gene; % activation and % inhibition at 10 μM; format: cell-based; details: CHO-K1, test substance 10 μM; CHO K1 hB1R cells; Ca2+ inflow after 0.5 nM Lys-Des-Arg9-bradykinin; read-out: B1R antagonism, human [10 μM] % inhibition
T1 construct: host or cells: CHO K1 cells (hB1R cells)
T1 sequence (P46663 1-353): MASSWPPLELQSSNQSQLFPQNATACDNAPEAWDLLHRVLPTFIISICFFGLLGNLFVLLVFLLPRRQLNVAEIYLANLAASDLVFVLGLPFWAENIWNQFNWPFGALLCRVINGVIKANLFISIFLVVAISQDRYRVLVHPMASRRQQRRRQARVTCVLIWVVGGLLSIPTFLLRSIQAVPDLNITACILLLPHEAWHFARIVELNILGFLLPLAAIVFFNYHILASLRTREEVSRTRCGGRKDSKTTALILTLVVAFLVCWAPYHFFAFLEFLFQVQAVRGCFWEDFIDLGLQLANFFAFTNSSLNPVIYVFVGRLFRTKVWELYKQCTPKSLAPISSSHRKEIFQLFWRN
Procedure, shortened: (§1)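 CHO K1 cells stably expressing human or rat B1R, Fluo-4 loaded, read by FLIPR (peak fluorescence). Compound at 10 µM first gives % activation versus agonist; after 10 min, agonist (human: 0.5 nM Lys-Des-Arg9-bradykinin; rat: 100 nM Des-Arg9-bradykinin) gives % inhibition relative to maximal inhibition.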

[2] = molecular target: T2, B1R receptor of the rat (bradykinin 1 receptor) (Rattus norvegicus, UniProt P97583); assay: FLIPR Ca2+ assay (Fluo-4) on CHO K1 cells stably transfected with the B1R gene of the rat; % activation and % inhibition at 10 μM; format: cell-based; details: CHO-K1, test substance 10 μM; CHO K1 rB1R cells; Ca2+ inflow after 100 nM Des-Arg9-bradykinin; read-out: B1R antagonism, rat [10 μM] % inhibition
T2 construct: host or cells: CHO K1 cells (rB1R cells)
T2 sequence (P97583 1-337): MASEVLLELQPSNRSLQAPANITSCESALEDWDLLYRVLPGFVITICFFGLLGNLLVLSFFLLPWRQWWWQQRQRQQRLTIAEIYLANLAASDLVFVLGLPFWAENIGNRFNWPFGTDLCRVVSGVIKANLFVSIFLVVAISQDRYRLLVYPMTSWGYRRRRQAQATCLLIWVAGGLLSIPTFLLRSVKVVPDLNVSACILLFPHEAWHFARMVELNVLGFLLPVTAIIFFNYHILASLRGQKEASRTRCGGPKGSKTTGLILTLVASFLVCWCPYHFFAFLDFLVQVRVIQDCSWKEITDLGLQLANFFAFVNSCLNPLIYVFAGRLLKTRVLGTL
Procedure, shortened: as §1

In the case of Cc1cc(S(=O)(=O)N(C)CCOCC(=O)N2CCC(O)(c3ccc(Cl)c(C(F)(F)F)c3)CC2)c(C)s1 [Example 259, N-(2-(2-(4-(4-chloro-3-(trifluoromethyl)phenyl)-4-hydroxypiperidin-1-yl)-2-oxoethoxy)ethyl)-N,2,5-trimethylthiophene-3-sulfonamide], the inhibition at 10 µM [1] is reported as 94% and the inhibition at 10 µM [2] is reported as 93.3%.

CN(CCOCC(=O)N1CCC(O)(c2ccc(Cl)cc2)CC1)S(=O)(=O)c1cc(Cl)sc1Cl [Example 260, 2,5-dichloro-N-(2-(2-(4-(4-chlorophenyl)-4-hydroxypiperidin-1-yl)-2-oxoethoxy)ethyl)-N-methylthiophene-3-sulfonamide] showed an inhibition at 10 µM [1] of 73.1% and an inhibition at 10 µM [2] of 91.1%.

CN(CCOCC(=O)N1CCC(O)(c2ccc(Br)cc2)CC1)S(=O)(=O)c1cc(Cl)sc1Cl [Example 261, N-(2-(2-(4-(4-bromophenyl)-4-hydroxypiperidin-1-yl)-2-oxoethoxy)ethyl)-2,5-dichloro-N-methylthiophene-3-sulfonamide] gave an inhibition at 10 µM [1] of 87.8% and an inhibition at 10 µM [2] of 98.5%.

In the case of CN(CCOCC(=O)N1CCC(O)(c2cccc(C(F)(F)F)c2)CC1)S(=O)(=O)c1cc(Cl)sc1Cl [Example 262, 2,5-dichloro-N-(2-(2-(4-hydroxy-4-(3-(trifluoromethyl)phenyl)piperidin-1-yl)-2-oxoethoxy)ethyl)-N-methylthiophene-3-sulfonamide], the inhibition at 10 µM [1] is reported as 73.6% and the inhibition at 10 µM [2] is reported as 94.2%.

For CN(CCOCC(=O)N1CCC(O)(c2ccc(Cl)c(C(F)(F)F)c2)CC1)S(=O)(=O)c1cc(Cl)sc1Cl [Example 263, 2,5-dichloro-N-(2-(2-(4-(4-chloro-3-(trifluoromethyl)phenyl)-4-hydroxypiperidin-1-yl)-2-oxoethoxy)ethyl)-N-methylthiophene-3-sulfonamide], the inhibition at 10 µM [1] was 42.9% and the inhibition at 10 µM [2] was 70.5%.

COc1cc(C)cc(C)c1S(=O)(=O)N1CCC(OCC(=O)N2CCC(O)(c3ccc(Br)cc3)CC2)C1 (centres unmarked) [Example 264, 1-(4-(4-bromophenyl)-4-hydroxypiperidin-1-yl)-2-(1-(2-methoxy-4,6-dimethylphenylsulfonyl)pyrrolidin-3-yloxy)ethanone] gave an inhibition at 10 µM [1] of 64.5% and an inhibition at 10 µM [2] of 4.5%.

COc1cc(C)cc(C)c1S(=O)(=O)N1CCC(OCC(=O)N2CCC(O)(Cc3ccccc3)CC2)C1 (centres unmarked) [Example 265, 1-(4-benzyl-4-hydroxypiperidin-1-yl)-2-(1-(2-methoxy-4,6-dimethylphenylsulfonyl)pyrrolidin-3-yloxy)ethanone] gave an inhibition at 10 µM [1] of 54.1% and an inhibition at 10 µM [2] of 29.5%.

O=C(COCC1CCCN1S(=O)(=O)c1cc(Cl)sc1Cl)N1CCC(O)(c2cccs2)CC1 (centres unmarked) [Example 266, 2-((1-(2,5-dichlorothiophen-3-ylsulfonyl)pyrrolidin-2-yl)methoxy)-1-(4-hydroxy-4-(thiophen-2-yl)piperidin-1-yl)ethanone] gave an inhibition at 10 µM [1] of 21.9% and an inhibition at 10 µM [2] of 78.6%.

Compound COc1cc(C)c(S(=O)(=O)N2CCC(COCC(=O)N3CCC(O)(c4cccs4)CC3)C2)c(C)c1 (centres unmarked) [Example 267, 1-(4-hydroxy-4-(thiophen-2-yl)piperidin-1-yl)-2-((1-(4-methoxy-2,6-dimethylphenylsulfonyl)pyrrolidin-3-yl)methoxy)ethanone] has an inhibition at 10 µM [1] of 90.6% and an inhibition at 10 µM [2] of 97.8%.

Work on COc1cc(C)c(S(=O)(=O)N(CCOCC(=O)N2CCC(O)(c3cccs3)CC2)CC2CC2)c(C)c1C [Example 268, N-(cyclopropylmethyl)-N-(2-(2-(4-hydroxy-4-(thiophen-2-yl)piperidin-1-yl)-2-oxoethoxy)ethyl)-4-methoxy-2,3,6-trimethylphenylsulfonamide] yielded an inhibition at 10 µM [1] of 99.1% and an inhibition at 10 µM [2] of 98.8%.

In the case of COc1cc(C)c(S(=O)(=O)N(CCOCC(=O)N2CCC(O)(c3cccs3)CC2)CC(C)C)c(C)c1C [Example 269, N-(2-(2-(4-hydroxy-4-(thiophen-2-yl)piperidin-1-yl)-2-oxoethoxy)ethyl)-N-isobutyl-4-methoxy-2,3,6-trimethylphenylsulfonamide], the inhibition at 10 µM [1] is reported as 98.4% and the inhibition at 10 µM [2] is reported as 99.1%.

Compound O=C(COCC1CCCCN1S(=O)(=O)c1c(Cl)cccc1Cl)N1CCC(O)(c2cccs2)CC1 (centres unmarked) [Example 270, 2-((1-(2,6-dichlorophenylsulfonyl)piperidin-2-yl)methoxy)-1-(4-hydroxy-4-(thiophen-2-yl)piperidin-1-yl)ethanone] has an inhibition at 10 µM [1] of 93.9% and an inhibition at 10 µM [2] of 99.7%.

Compound O=C(COCC1CCCCN1S(=O)(=O)c1cc(Cl)sc1Cl)N1CCC(O)(c2ccccc2)CC1 (centres unmarked) [Example 271, 2-((1-(2,5-dichlorothiophen-3-ylsulfonyl)piperidin-2-yl)methoxy)-1-(4-hydroxy-4-phenylpiperidin-1-yl)ethanone] has an inhibition at 10 µM [1] of 41.9% and an inhibition at 10 µM [2] of 78.3%.

Work on O=C(COCC1CCN(S(=O)(=O)c2c(Cl)cc(Cl)cc2Cl)C1)N1CCC(O)(c2ccc(Cl)cc2)CC1 (centres unmarked) [Example 272, 1-(4-(4-chlorophenyl)-4-hydroxypiperidin-1-yl)-2-((1-(2,4,6-trichlorophenylsulfonyl)pyrrolidin-3-yl)methoxy)ethanone] yielded an inhibition at 10 µM [1] of 54.1% and an inhibition at 10 µM [2] of 24.1%.

Compound O=C(COCC1CCCCN1S(=O)(=O)c1csc2ccccc12)N1CCC(O)(c2cccnc2)CC1 (centres unmarked) [Example 273, 2-((1-(benzo[b]thiophen-3-ylsulfonyl)piperidin-2-yl)methoxy)-1-(4-hydroxy-4-(pyridin-3-yl)piperidin-1-yl)ethanone] has an inhibition at 10 µM [1] of 103% and an inhibition at 10 µM [2] of 101%.

O=C(COCC1CCCCN1S(=O)(=O)c1csc2ccccc12)N1CCC(O)(Cc2ccccc2)CC1 (centres unmarked) [Example 274, 2-((1-(benzo[b]thiophen-3-ylsulfonyl)piperidin-2-yl)methoxy)-1-(4-benzyl-4-hydroxypiperidin-1-yl)ethanone] showed an inhibition at 10 µM [1] of 96.4% and an inhibition at 10 µM [2] of 76%.

For COc1cc(C)c(S(=O)(=O)N(C)CCOCCC(=O)N2CCC(O)(c3ccc(Cl)cc3)CC2)c(C)c1 [Example 275, N-(2-(3-(4-(4-chlorophenyl)-4-hydroxypiperidin-1-yl)-3-oxopropoxy)ethyl)-4-methoxy-N,2,6-trimethylphenylsulfonamide], the inhibition at 10 µM [1] was 100% and the inhibition at 10 µM [2] was 92.4%.

Compound COc1cc(C)c(S(=O)(=O)N(C)CCOCCC(=O)N2CCC(O)(c3ccccc3)CC2)c(C)c1 [Example 276, N-(2-(3-(4-hydroxy-4-phenylpiperidin-1-yl)-3-oxopropoxy)ethyl)-4-methoxy-N,2,6-trimethylphenylsulfonamide] has an inhibition at 10 µM [1] of 70.7% and an inhibition at 10 µM [2] of 88.3%.

COc1cc(C)c(S(=O)(=O)N(C)CCOCCC(=O)N2CCC(O)(Cc3ccccc3)CC2)c(C)c1 [Example 277, N-(2-(3-(4-benzyl-4-hydroxypiperidin-1-yl)-3-oxopropoxy)ethyl)-4-methoxy-N,2,6-trimethylphenylsulfonamide] showed an inhibition at 10 µM [1] of 86.8% and an inhibition at 10 µM [2] of 88.2%.

COc1cc(C)c(S(=O)(=O)N(C)CCOCCC(=O)N2CCC(O)(c3ccc(Cl)c(C(F)(F)F)c3)CC2)c(C)c1 [Example 278, N-(2-(3-(4-(4-chloro-3-(trifluoromethyl)phenyl)-4-hydroxypiperidin-1-yl)-3-oxopropoxy)ethyl)-4-methoxy-N,2,6-trimethylphenylsulfonamide] gave an inhibition at 10 µM [1] of 96.4% and an inhibition at 10 µM [2] of 99.9%.

For COc1cc(C)c(S(=O)(=O)N(C)CCOCC(=O)N2CCC(O)(Cc3cccnc3)CC2)c(C)c1 [Example 279, N-(2-(2-(4-hydroxy-4-(pyridin-3-ylmethyl)piperidin-1-yl)-2-oxoethoxy)ethyl)-4-methoxy-N,2,6-trimethylphenylsulfonamide hydrochloride], the inhibition at 10 µM [1] was 103% and the inhibition at 10 µM [2] was 105%.

Compound COc1cc(C)c(S(=O)(=O)N(C)CCOCC(=O)N2CCC(O)(Cc3ccncc3)CC2)c(C)c1 [Example 280, N-(2-(2-(4-hydroxy-4-(pyridin-4-ylmethyl)piperidin-1-yl)-2-oxoethoxy)ethyl)-4-methoxy-N,2,6-trimethylphenylsulfonamide] has an inhibition at 10 µM [1] of 100% and an inhibition at 10 µM [2] of 100%.
